Test results: US20230399312A1, “SUBSTITUTED PYRIMIDINES AND METHODS OF USE” (THERAVANCE BIOPHARMA R&D IP, LLC, priority 2020, published 2023)

Key:
[1] = molecular target: T1, recombinant human ALK5 (TGF-βR1) protein (Homo sapiens, UniProt P36897); assay: Biochemical ALK5 (TGF-βR1) assay to measure pKi (LANCE Ultra ULight kinase assay); details: apparent pKi, converted from pIC50 by Cheng-Prusoff
T1 construct: purchased Life Technologies PR9075A
T1 sequence (P36897 34-503): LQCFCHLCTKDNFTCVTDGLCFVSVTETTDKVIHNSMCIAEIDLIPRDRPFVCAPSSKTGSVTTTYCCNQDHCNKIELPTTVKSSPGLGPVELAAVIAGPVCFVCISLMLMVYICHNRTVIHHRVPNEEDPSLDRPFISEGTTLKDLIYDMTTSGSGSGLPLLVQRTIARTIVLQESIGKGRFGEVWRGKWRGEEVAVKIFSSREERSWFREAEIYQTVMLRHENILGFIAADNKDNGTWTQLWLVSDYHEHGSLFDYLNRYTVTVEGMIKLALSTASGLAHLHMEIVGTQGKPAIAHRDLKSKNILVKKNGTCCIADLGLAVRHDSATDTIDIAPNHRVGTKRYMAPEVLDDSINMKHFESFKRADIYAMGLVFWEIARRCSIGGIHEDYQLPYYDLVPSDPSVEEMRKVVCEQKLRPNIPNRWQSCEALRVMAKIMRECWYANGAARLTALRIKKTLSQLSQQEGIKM
Summary of the method: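 Cmpd + enzyme, 60 min RT; ATP from 125 μM (5×) stock, 60 min 37 °C; stop 12 mM EDTA/Eu anti-pThr1342 Topo2α Ab (pH 7.0 buffer); TR-FRET 665 nm. DMSO = max, SD-208 = min signal. 4-PL pIC50 → pKi (Cheng-Prusoff).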

[2] = test system: TGF-β-stimulated SMAD3 phosphorylation in BEAS-2B cells; assay: Cellular ALK5 potency assay, inhibition of TGF-β stimulated pSMAD3 formation in BEAS-2B cells; format: cell-based; details: Homo sapiens, pSMAD3, TGF-β 10 ng/mL, read-out: BEAS2B pIC50 (converted)
Summary of the method: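 Cells were seeded overnight, rinsed into HEPES/BSA-supplemented HBSS, and dosed with serially diluted compound for 1 h at 37 °C, 5% CO2. TGF-β stimulation (10 ng/mL final) followed for 30 min, then lysis and AlphaLISA pSMAD3 measurement; potency reported as pIC50.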

SMILES | Ki [1] [nM] | IC50 [2] [nM]
Cc1cccc(-c2nccc(Nc3ccnc(Nc4ccc(NS(=O)(=O)CCN)cc4)n3)n2)n1 [Compound 363, 2-amino-N-[4-[[4-[[2-(6-methyl-2-pyridyl)pyrimidin-4-yl]amino]pyrimidin-2-yl]amino]phenyl] ethanesulfonamide] | 0.398 to 3.16 | 200 to 1260
Cc1cccc(-c2nccc(Nc3ccnc(Nc4csc(NC(=O)C5CCNC5)c4)n3)n2)n1 (stereo not shown) [Compound 364, N-[4-[[4-[[2-(6-methyl-2-pyridyl)pyrimidin-4-yl]amino]pyrimidin-2-yl]amino]-2-thienyl]pyrrolidine-3-carboxamide] | ≤ 0.0316 | ≤ 20
Cc1cccc(-c2nccc(Nc3ccnc(Nc4ccc(N5CCN(C6CCOC6=O)CC5)cc4)n3)n2)n1 (stereo not shown) [Compound 365, 3-[4-[4-[[4-[[2-(6-methyl-2-pyridyl)pyrimidin-4-yl]amino]pyrimidin-2-yl]amino]phenyl]piperazin-1-yl]tetrahydrofuran-2-one] | 0.0398 to 0.316 | ≤ 20
Cc1cccc(-c2nccc(Nc3ccnc(Nc4ccc(CN5CCOCC5)cc4)n3)n2)n1 [Compound 366, N4-[2-(6-methyl-2-pyridyl)pyrimidin-4-yl]-N2-[4-(morpholinomethyl)phenyl] pyrimidine-2,4-diamine] | 0.0398 to 0.316 | 25.1 to 158
CNC(=O)[C@@H]1CN(c2ccc(Nc3nccc(Nc4ccnc(-c5cccc(C)n5)n4)n3)cc2)CCN1 [Compound 367, (2S)-N-methyl-4-[4-[[4-[[2-(6-methyl-2-pyridyl)pyrimidin-4-yl]amino]pyrimidin-2-yl]amino]phenyl]piperazine-2-carboxamide] | 0.0398 to 0.316 | 25.1 to 158
Cc1cccc(-c2nccc(Nc3ccnc(Nc4ccc(N5CCC(C(=O)OCC6CNC6)CC5)cc4)n3)n2)n1 [Compound 368, azetidin-3-ylmethyl 1-[4-[[4-[[2-(6-methyl-2-pyridyl)pyrimidin-4-yl]amino]pyrimidin-2-yl]amino]phenyl]piperidine-4-carboxylate] | 0.0398 to 0.316 | 25.1 to 158
COC(=O)C1CN(CCNc2ccc(Nc3nccc(Nc4ccnc(-c5cccc(C)n5)n4)n3)cc2)CCN1 (stereo not shown) [Compound 369, methyl 4-[2-[4-[[4-[[2-(6-methyl-2-pyridyl)pyrimidin-4-yl]amino]pyrimidin-2-yl]amino]anilino]ethyl] piperazine-2-carboxylate] | 0.398 to 3.16 | 25.1 to 158
Cc1cccc(-c2nccc(Nc3ccnc(Nc4ccc(CN5CCN(C(C)C)CC5)cc4)n3)n2)n1 [Compound 370, N2-[4-[(4-isopropylpiperazin-1-yl)methyl]phenyl]-N4-[2-(6-methyl-2-pyridyl)pyrimidin-4-yl]pyrimidine-2,4-diamine] | 0.0398 to 0.316 | 25.1 to 158
Cc1cccc(-c2nccc(Nc3ccnc(Nc4ccc(NS(=O)(=O)N(C)C)cc4)n3)n2)n1 [Compound 371, 4-[[2-[4-(dimethylsulfamoylamino)anilino]pyrimidin-4-yl]amino]-2-(6-methyl-2-pyridyl)pyrimidine] | 0.398 to 3.16 | 25.1 to 158
Cc1cccc(-c2nccc(Nc3ccnc(Nc4ccc(CN5CC6(CCOC6)C5)cc4)n3)n2)n1 [Compound 372, N4-[2-(6-methyl-2-pyridyl)pyrimidin-4-yl]-N2-[4-(6-oxa-2-azaspiro[3.4]octan-2-ylmethyl)phenyl]pyrimidine-2,4-diamine] | 0.0398 to 0.316 | 25.1 to 158
Cc1cccc(-c2nccc(Nc3ccnc(Nc4cnn(C5CCCNC5)c4)n3)n2)n1 (stereo not shown) [Compound 373, N4-[2-(6-methyl-2-pyridyl)pyrimidin-4-yl]-N2-[1-(3-piperidyl)pyrazol-4-yl]pyrimidine-2,4-diamine] | ≤ 0.0316 | 200 to 1260
Cc1cccc(-c2nccc(Nc3ccnc(Nc4ccc(C5CCCNC5)cc4)n3)n2)n1 (stereo not shown) [Compound 374, N4-[2-(6-methyl-2-pyridyl)pyrimidin-4-yl]-N2-[4-(3-piperidyl)phenyl]pyrimidine-2,4-diamine] | 0.0398 to 0.316 | 25.1 to 158
Cc1cccc(-c2nccc(Nc3ccnc(Nc4ccc(CN5C[C@@H]6C[C@H]5CN6)cc4)n3)n2)n1 [Compound 375, N2-[4-[[(1S,4S)-2,5-diazabicyclo[2.2.1]heptan-2-yl]methyl]phenyl]-N4-[2-(6-methyl-2-pyridyl)pyrimidin-4-yl]pyrimidine-2,4-diamine] | 0.0398 to 0.316 | 25.1 to 158
Cc1cccc(-c2nccc(Nc3ccnc(Nc4ccc(CN5C[C@H](C)NC[C@H]5C)cc4)n3)n2)n1 [Compound 376, N2-[4-[[(2R,5S)-2,5-dimethylpiperazin-1-yl]methyl]phenyl]-N4-[2-(6-methyl-2-pyridyl)pyrimidin-4-yl]pyrimidine-2,4-diamine] | 0.0398 to 0.316 | 25.1 to 158
Cc1cccc(-c2nccc(Nc3ccnc(Nc4ccc(CN5CCCNCC5)cc4)n3)n2)n1 [Compound 377, N2-[4-(1,4-diazepan-1-ylmethyl)phenyl]-N4-[2-(6-methyl-2-pyridyl)pyrimidin-4-yl]pyrimidine-2,4-diamine] | 0.0398 to 0.316 | 25.1 to 158
Cc1cccc(-c2nccc(Nc3ccnc(Nc4csc(C(=O)NCC5(CO)CNC5)c4)n3)n2)n1 [Compound 378, N-[[3-(hydroxymethyl)azetidin-3-yl]methyl]-4-[[4-[[2-(6-methyl-2-pyridyl)pyrimidin-4-yl]amino]pyrimidin-2-yl]amino]thiophene-2-carboxamide] | ≤ 0.0316 | 25.1 to 158
CNC1CCN(c2ccc(Nc3nccc(Nc4ccnc(-c5cc(O)ccc5C)n4)n3)cc2)CC1 [Compound 379, 4-methyl-3-[4-[[2-[4-[4-(methylamino)-1-piperidyl]anilino]pyrimidin-4-yl]amino]pyrimidin-2-yl]phenol] | 0.398 to 3.16 | 200 to 1260
Cc1cccc(-c2nccc(Nc3ccnc(Nc4ccc(N5CCN(CC6CNC6)CC5)cc4)n3)n2)n1 [Compound 380, N2-[4-[4-(azetidin-3-ylmethyl)piperazin-1-yl]phenyl]-N4-[2-(6-methyl-2-pyridyl)pyrimidin-4-yl]pyrimidine-2,4-diamine] | 0.0398 to 0.316 | 25.1 to 158
Cc1cccc(-c2nccc(Nc3ccnc(Nc4ccc(Cl)c(CN5C[C@@H](C)N[C@@H](C)C5)c4)n3)n2)n1 [Compound 381, N2-[4-chloro-3-[[rac-(3R,5S)-3,5-dimethylpiperazin-1-yl]methyl]phenyl]-N4-[2-(6-methyl-2-pyridyl)pyrimidin-4-yl]pyrimidine-2,4-diamine] | 0.0398 to 0.316 | 25.1 to 158
Cc1cccc(-c2nccc(Nc3ccnc(Nc4ccc(CN5CCCC(C(=O)OC6CCNCC6)C5)cc4)n3)n2)n1 (stereo not shown) [Compound 383, 4-piperidyl 1-[[4-[[4-[[2-(6-methyl-2-pyridyl)pyrimidin-4-yl]amino]pyrimidin-2-yl]amino]phenyl]methyl] piperidine-3-carboxylate] | 0.0398 to 0.316 | 25.1 to 158
Cc1cccc(-c2nccc(Nc3ccnc(Nc4ccc(F)c(CN5C6CCC5CNC6)c4)n3)n2)n1 [Compound 384, N2-[3-(3,8-diazabicyclo[3.2.1]octan-8-ylmethyl)-4-fluoro-phenyl]-N4-[2-(6-methyl-2-pyridyl)pyrimidin-4-yl]pyrimidine-2,4-diamine] | 0.0398 to 0.316 | 25.1 to 158
Cc1cccc(-c2nccc(Nc3ccnc(Nc4cccc(NC(=O)CC5CNC5)c4)n3)n2)n1 [Compound 385, 2-(azetidin-3-yl)-N-[3-[[4-[[2-(6-methyl-2-pyridyl)pyrimidin-4-yl]amino]pyrimidin-2-yl]amino]phenyl]acetamide] | ≤ 0.0316 | 25.1 to 158
Cc1cccc(-c2nccc(Nc3ccnc(Nc4csc(C(=O)O)c4)n3)n2)n1 [Compound 386, 4-[[4-[[2-(6-methyl-2-pyridyl)pyrimidin-4-yl]amino]pyrimidin-2-yl]amino]thiophene-2-carboxylic acid] | 0.398 to 3.16 | 1580 to 10000
Cc1cccc(-c2nccc(Nc3ccnc(Nc4ccc(C(=O)NC5CNC5)cc4)n3)n2)n1 [Compound 387, N-(azetidin-3-yl)-4-[[4-[[2-(6-methyl-2-pyridyl)pyrimidin-4-yl]amino]pyrimidin-2-yl]amino]benzamide] | 0.0398 to 0.316 | ≤ 20
Cc1cccc(-c2nccc(Nc3ccnc(Nc4ccc(CO)cc4)n3)n2)n1 [Compound 388, [4-[[4-[[2-(6-methyl-2-pyridyl)pyrimidin-4-yl]amino]pyrimidin-2-yl]amino]phenyl]methanol] | 0.398 to 3.16 | ≤ 20
Cc1cccc(-c2nccc(Nc3ccnc(Nc4cc(C(=O)N5CCNCC5)cs4)n3)n2)n1 [Compound 389, [5-[[4-[[2-(6-methyl-2-pyridyl)pyrimidin-4-yl]amino]pyrimidin-2-yl]amino]-3-thienyl]-piperazin-1-yl-methanone] | 0.0398 to 0.316 | 25.1 to 158
